What was measured:
[1] = molecular target: T1, rat brain MAO-A (Rattus norvegicus, UniProt P21396); test: biochemical; conditions: for IC50: IC50 MAO-A, rat brain homogenate in vitro, mean SEM, n=3 in triplicates
T1 construct: from tissue; host or cells: rat brain homogenate
T1 sequence (P21396 1-526): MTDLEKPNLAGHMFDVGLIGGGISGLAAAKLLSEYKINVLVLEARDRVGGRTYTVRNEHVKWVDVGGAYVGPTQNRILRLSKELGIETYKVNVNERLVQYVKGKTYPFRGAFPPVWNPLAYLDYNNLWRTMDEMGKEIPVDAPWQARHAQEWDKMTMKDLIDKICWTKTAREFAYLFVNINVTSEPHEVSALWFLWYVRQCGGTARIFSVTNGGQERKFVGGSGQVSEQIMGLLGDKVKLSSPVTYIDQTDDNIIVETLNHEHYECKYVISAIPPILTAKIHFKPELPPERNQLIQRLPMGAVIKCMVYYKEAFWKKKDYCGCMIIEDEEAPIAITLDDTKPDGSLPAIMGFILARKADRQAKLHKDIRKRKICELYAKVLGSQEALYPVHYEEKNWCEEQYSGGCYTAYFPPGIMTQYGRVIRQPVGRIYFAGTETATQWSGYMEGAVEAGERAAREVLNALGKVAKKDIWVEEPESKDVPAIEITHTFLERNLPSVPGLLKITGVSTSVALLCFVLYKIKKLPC
Method: (§1) Rats were decapitated and the brains were quickly taken into a pre-weighted ice-cold sucrose buffer (10 mM Tris-HCl buffer, pH 7.4, containing 0.32 M sucrose), and their weights were measured. The brains were homogenized at 0-4° C. in 0.32 M sucrose (one part tissue to 20 parts sucrose) in a Teflon glass homogenizer. The resultant homogenates were used to determine MAO activity. Protein concentration was determined with Bradford reagent at 595 nm, using bovine serum albumin as a standard.
(§2) The activity of MAO-A and MAO-B were determined by the adapted method of Tipton & Youdim (Tipton et al. 1983). Briefly, the multifunctional compound tested was added to a suitable dilution of the enzyme preparation (70 μg MAO-B and 150 μg MAO-A) in 0.05 M phosphate buffer (pH 7.4). The mixture was incubated together with 0.05 μM 1-deprenyl, a specific inhibitor of MAO-B (for determination of MAO-A activity in the presence of the test compound) or 0.05 μM clorgyline a specific inhibitor of MAO-A (for determination of MAO-B activity). […] The reaction was stopped with 2M ice-cold citric acid, and the radioactive metabolites (5-hydroxytryptaldehyde and phenylacetaldehyde) were extracted by addition of 2 ml of ethylacetate/toluene (1:1 vol/vol). The radioactivity contained in the organic phase was determined by liquid-scintillation counting in cpm units.
(§3) MAO-A and MAO-B activities were determined in rat brain homogenate in vitro following incubation with varying concentrations of the test compounds.
(§4) The results are the mean SEM, n=3 in triplicates.

[2] = molecular target: T2, rat brain MAO-B (Rattus norvegicus, UniProt P19643); test: biochemical; conditions: for inhibition at 10 µM: read-out: percent inhibition MAO-B
T2 construct: from tissue; host or cells: rat brain homogenate
T2 sequence (P19643 1-520): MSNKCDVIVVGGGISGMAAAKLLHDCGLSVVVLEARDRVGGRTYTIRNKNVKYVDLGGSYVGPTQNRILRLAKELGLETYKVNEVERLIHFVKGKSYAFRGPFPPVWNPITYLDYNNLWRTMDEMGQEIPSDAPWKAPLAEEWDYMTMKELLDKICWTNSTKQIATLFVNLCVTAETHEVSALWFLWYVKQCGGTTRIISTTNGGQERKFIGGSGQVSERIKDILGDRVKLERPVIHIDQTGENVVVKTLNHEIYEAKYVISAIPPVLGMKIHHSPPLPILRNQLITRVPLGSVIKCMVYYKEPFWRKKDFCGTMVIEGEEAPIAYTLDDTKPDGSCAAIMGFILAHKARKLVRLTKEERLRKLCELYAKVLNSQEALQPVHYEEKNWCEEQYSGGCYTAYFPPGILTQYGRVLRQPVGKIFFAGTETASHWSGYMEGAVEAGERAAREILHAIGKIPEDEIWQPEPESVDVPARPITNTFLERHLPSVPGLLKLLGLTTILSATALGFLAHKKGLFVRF
Method: as §1, §2, §3, §4

[3] = test system: ChE from rat brain homogenates; test: Time course of total ChE inhibition at 1 μM versus rivastigmine; format: biochemical; conditions: 1 μM, time course
Method: The new carbamates of the present invention are expected to act as rivastigmine and inhibit ChE activity. […] Enzyme activity was determined with Ellman's colorimetric method after addition of substrate, and the results are shown in FIGS. 8A-8B.

[4] = molecular target: T3, total cholinesterase (ChE) (Rattus norvegicus, UniProt P37136); test: Total cholinesterase inhibition in rat brain homogenates (Ellman); format: biochemical
T3 sequence (P37136 32-614): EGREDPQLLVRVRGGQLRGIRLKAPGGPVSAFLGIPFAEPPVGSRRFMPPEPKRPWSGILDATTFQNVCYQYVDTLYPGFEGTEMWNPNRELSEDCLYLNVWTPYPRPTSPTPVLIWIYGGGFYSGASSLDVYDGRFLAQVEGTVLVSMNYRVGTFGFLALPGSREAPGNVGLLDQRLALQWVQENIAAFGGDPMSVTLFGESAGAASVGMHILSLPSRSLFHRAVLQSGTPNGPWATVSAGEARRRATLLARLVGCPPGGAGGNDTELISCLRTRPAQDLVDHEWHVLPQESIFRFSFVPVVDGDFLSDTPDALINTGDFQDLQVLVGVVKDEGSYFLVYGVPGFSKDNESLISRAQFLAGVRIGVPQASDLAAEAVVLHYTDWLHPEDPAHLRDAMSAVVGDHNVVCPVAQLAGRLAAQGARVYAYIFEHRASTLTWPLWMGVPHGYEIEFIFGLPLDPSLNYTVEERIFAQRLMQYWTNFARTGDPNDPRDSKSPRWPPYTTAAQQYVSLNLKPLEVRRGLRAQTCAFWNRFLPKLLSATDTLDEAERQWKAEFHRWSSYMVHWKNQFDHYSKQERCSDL
Method: Cholinesterase activity was determined in rat brain homogenate following incubation with varying concentrations of the multifunctional pro-chelators of the invention (also referred to herein as “carbamates”).
Ellman's colorimetric method was adapted for determination of total cholinesterase (ChE) and butyrylcholinesterase (BuChE) activities in rat brain homogenates. Brain tissue from adult Wistar rats was homogenized at 2% w/v (or 10% w/v, for BuChE) in 0.1 M sodium phosphate buffer, pH 7.4, with added NaCl 58.5 g/l and Triton X-100 0.05% v/v. Aliquots of homogenate (20 μl) were incubated with the test compounds for designed time intervals in phosphate buffer pH 7.4, before addition of 5,5′-dithiobis(2-nitrobenzoic) acid and either 1 mM acetylthiocholine iodide or 10 mM butyrylthiocholine iodide (Sigma, St. Louis, Mo.). The reaction was run at 37° C. in a final volume of […] in 96-well microplates and was followed at 412 nm for 5 min with a plate reader. In every experiment, cholinesterase-independent (nonspecific) substrate hydrolysis was determined by including one experimental group treated with tacrine 30 μM. Appropriate tissue and reagent blanks were also included. Reaction velocities were determined in three or four replicates per condition; these were averaged and expressed as percent activity relative to control (solvent), after subtracting the rate of nonspecific hydrolysis.
The results are the mean SEM, n=3 in triplicates. ND—not determined.

[5] = molecular target: T4, rat brain cholinesterase (total ChE) (Rattus norvegicus, UniProt P37136); test: Kinetics of irreversible cholinesterase inhibition (Kitz-Wilson); format: biochemical
T4 construct: rows headed: Ki (dissociation constant for EI); other: rat brain total ChE; mean of 3-4 experiments; k+2 (carbamylation rate constant); other: from ki; rate of carba
T4 sequence (P37136 32-614): T3 sequence (P37136 32-614)
Method: To determine kinetic constants of irreversible inhibition, cholinesterase from rat brain homogenates was incubated with the multifunctional compounds of the invention for designed time intervals in phosphate buffer pH 7.4.
The residual cholinesterase activity was immediately measured with the Ellman's colorimetric method after addition of 5,5′-dithiobis(2-nitrobenzoic) acid and 1 mM acetylthiocholine iodide. The inhibition kinetics were assessed according to Kitz-Wilson equation:
[formula] wherein: E represents the enzyme; I represents the intact carbamate (inhibitor); EI is the initial reversible enzyme complex; E* is the carbamylated enzyme; Ki represents the dissociation constant for EI; k+2 is the carbamylation rate constant and k+3 is the decarbamylation rate constant; kapp is the pseudo-first-order inhibition rate constant; ki, the second-order rate inhibition constant, is approximated by k+2/Ki. Under experimental condition [I]>>[E0].
According to equation (2), the logarithm of the ratio of the residual cholinesterase activity (E) and the initial cholinesterase activity (E0) is plotted against the time of incubation. The slopes of the lines representing kapp were determined by linear regression.
The slopes of the lines represent the pseudo-first-order inhibition rate constant (kapp) determined from linear regression analysis. […] The carbamylation rate constant (k+2) was obtained from the y-intercept, and the dissociation constant ([…] was obtained from the slope of the line multiplied by k+2 as described in Materials and Methods.
From these lines, the values of kapp were calculated based on Equation (2) of the Kitz-Wilson equations (see Material and Methods). […] The carbamylation rate constant k+2 is a measure of inactivation of ChE.

[6] = Metal chelation assay (UV-vis spectra of metal complexes); format: physicochemical; conditions: ZnCl2, CuSO4, FeCl3 and FeSO4; 5% NH4Ac, pH=7
Source text: Metal chelation, particularly iron chelation, is an important precondition for the antioxidative-function of the multi-functional compounds of the invention, because it is the excessive iron stores and iron-mediated generation of free radicals in the brain that are thought to be associated with neurodegenerative diseases. The novel strategy, according to the present invention, for the treatment of neurodegenerative diseases such as Alzheimer's disease is the design of pro-chelators that inhibit AChE with a concomitant release of the active chelators. This novel strategy has advantages over the current chelator strategy since it is capable not only of minimizing the potential toxicity associated with strong chelators such as the 8-hydroxyquinoline derivatives disclosed in WO 2004/041151, which might interfere with healthy metal metabolism in the brain, but it also offers multiple activities against AChE, Aβ aggregation, oxidative stress, and metal (Fe, Cu, Zn) dyshomeostasis in the brain. Therefore, a metal chelation assay was used to confirm that the new multifunctional pro-chelators that comprise an N,N-dialkylcarbamoyl moiety [N(RR′)CO—] linked to the oxygen at position 8 of quinoline would have little to no affinity for metal ions in their pro-drug form. When these pro-chelators bind to cholinesterase or AChE in the brain, the N,N-dialkylcarbamoyl moiety is dissociated, thus unmasking a free hydroxyl group at said position 8 of quinoline, turning the pro-chelators into active chelators, which passivate excess cerebral metal ions and protect neuronal cells against reactive oxygen species (ROS).
A spectrophotometric method was used for measurement of metal complexes of the multifunctional pro-chelators of the invention with metal ions selected from Zn^2+, Cu^2+, Fe^3+ and Fe^2+, and compared to the respective metal complexes of some known iron chelators disclosed in WO 2004/041151.
Thus, the metal chelating function of compound 13 and compound 23 as compared to M30 and HLA20, respectively, was measured by dissolving 0.1 mM or 0.2 mM of the test compounds in 5% NH4Ac, pH=7, in the presence and absence of 0.1 mM or 0.2 mM of the metal salts […], CuSO4, FeCl3 and FeSO4, and measuring the UV-vis spectra (Hewlett-Packard 8450A diode array spectrophotometer) of the various metal complexes formed. The results for M30 and compound 13 are shown in FIGS. 1A and 1B, respectively.

[7] = test system: human SH-SY5Y neuroblastoma cells; test: MTT cell viability assay in SH-SY5Y cells; format: cell-based; conditions: MTT after 48 h incubation
Method: Cell culture. Human neuroblastoma SH-SY5Y cells were obtained from American Type Culture Collection (Rockville, Md., USA). Cells were routinely cultured in MEM-Eagle/F-12(HAM) (1:1), containing 10% FCS and a mixture of 2% sodium bicarbonate, 1% penicillin/streptomycin/nystatin and 1% sodium pyruvate. Cell cultures were incubated at 37° C. in a humid 5% CO2-95% air environment.
Twenty-four hours after attachment of the SH-SY5Y cells, the medium was replaced with DMEM containing 0.1% BSA. The test compounds were added to the cells after 1 h of incubation. After 24 h incubation, the cells were subjected to MTT test as previously described (Gassen et al., 1998). The absorption was determined in a Perkin-Elmer Dual Wavelength Eliza-Reader at λ=570/650 nm after automatic subtraction of background readings. The results are expressed as percentage of the untreated control.
The effect of the iron chelators M30 and HLA20 versus that of the pro-chelators 13 and 23, on viability of human SH-SY5Y cells was tested. Human SH-SY5Y neuroblastoma cells were plated in 100-mm culture dishes and cultured in DMEM (4,500 mg/l glucose), containing 10% FCS (fetal calf serum, Bet Haemek, Israel), and 1% of a mixture of penicillin/streptomycin/nystatin. When cells reached the required confluence, they were detached and re-cultured in microtiter plates (96 wells) pre-coated with collagen ([…]), in DMEM with 10% of fetal calf serum (0.5×10^4 cells/well). Cell viability was tested by the 3-(4,5-dimethylthiazol-2-yl)-2,5-diphenyltetrazolium (MTT) assays after 48 h incubation.

Compound	IC50 [1] [nM]	inhibition at 10 µM [2] [%]	ChE inhibition compared with rivastigmine and other carbamates [3]	IC50 ([4]; rat brain homogenates, mean SEM, n=3 in triplicates) [nM]	potency in inhibiting ChE relative to rivastigmine ([5]; from ki)	kinact/KI ([5]; pH 7.4, read-out: ki (second-order rate inhibition constant, approximated by k+2/Ki)) [M⁻¹ s⁻¹]	inhibition at 50 µM ([4]; read-out: percent inhibition Total ChE) [%]	binding of metal ions (shift of absorbance peak) [6]	inhibitory effect on MAO-A ([1]; rat brain homogenate)	inhibitory effect on MAO-B ([2]; rat brain homogenate)	cell viability ([7]; 10 μM) [%]	cell viability ([7]; 25 μM) [%]	cell viability ([7]; 50 μM)
C#CCN(C)Cc1ccc(OC(=O)N(C)C)c2ncccc12 [Compound 2, 5-((methyl(propargyl)amino)methyl)quinolin-8-yl dimethylcarbamate]	< 100	67	more potent than	520	–	–	–	–	–	–	–	–	–
C#CCN(C)Cc1ccc(OC(=O)NCCCCCC)c2ncccc12 [Compound 4, 5-((methyl(propargyl)amino)methyl)quinolin-8-yl hexylcarbamate]	< 100	25	–	–	half potent	39	43	–	–	–	–	–	–
C#CCN1CCN(Cc2ccc(O)c3ncccc23)CC1 [HLA20, reference compound]	–	–	–	–	–	–	–	binds the respective metal ions	minor to none inhibitory effects	minor to none inhibitory effects	≤ 75	≤ 75	almost all the cells died
